Results on four compounds are retold here after PMC12626222, “Benzoic and salicylic acids inhibit β-substituted alanine synthase 4;1 in common bean” (Plant Physiology, 2025).

Assay [1] concerns the target T1, PvBSAS4;1 (beta-substituted alanine synthase 4;1, cytosolic cysteine synthase) (Phaseolus vulgaris, UniProt V7BIJ9).
T1 construct: gene PHAVU_007G185200g
Description: acid-ninhydrin colorimetric assay, Lineweaver-Burk plot. It is filed as biochemical. The following applies: 2 to 8 mM O-acetylserine, 1.5 mM sodium sulfide, 100 mM MOPSO pH 7.0, 25 °C; apparent values plotted against benzoic acid concentration.

Assay [2] deals with T1, PvBSAS4;1 (beta-substituted alanine synthase 4;1, cytosolic cysteine synthase). Briefly: acid-ninhydrin colorimetric assay of cysteine formation, […] nm. It is filed as biochemical.
Assay [3] shares this target. Description: X-ray crystal structure, […] Å. It is filed as binding.

T1 sequence (V7BIJ9 entry or part of it): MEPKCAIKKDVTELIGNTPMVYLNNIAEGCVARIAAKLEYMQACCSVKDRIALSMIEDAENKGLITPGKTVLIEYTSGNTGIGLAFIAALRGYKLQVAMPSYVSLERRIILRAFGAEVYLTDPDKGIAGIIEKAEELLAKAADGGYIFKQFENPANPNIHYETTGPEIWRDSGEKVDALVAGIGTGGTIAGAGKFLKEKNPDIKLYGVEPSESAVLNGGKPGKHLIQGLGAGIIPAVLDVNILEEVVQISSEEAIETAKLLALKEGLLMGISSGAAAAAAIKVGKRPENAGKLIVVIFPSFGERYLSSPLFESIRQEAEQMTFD

Take `CC(=O)OC[C@H](N)C(=O)O` [OAS, O-acetylserine]: the Ks app entry in assay [1] was “the replot of Ks app versus the concentration of inhibitor”.

The compound `O=C(O)c1ccccc1` [BEZ, benzoic acid] yielded a concentration for half-maximal inhibition (IC50) in assay [2] of around 600 µM. Besides, the “X-ray crystal structure, 1.60 Å” value in assay [3] (co-purified from E. coli, active site, near PLP (internal aldimine), carboxylate bound by Thr76, Ser77, Asn79, Thr80, Gln150) was “contains the PLP prosthetic group and a molecule of benzoic acid (Fig. 3A)”.

`O=C(O)c1ccccc1O` [salicylic acid]: the IC50 in assay [2] was determined as 600 µM.

Turning to `Cc1ncc(COP(=O)(O)O)c(C=O)c1O` [PLP, pyridoxal 5′-phosphate], in assay [3] (covalent internal aldimine with Lys48, co-purified), the “X-ray crystal structure, 1.60 Å” value was “PLP is stabilized by a covalent bond to Lys48, creating an internal aldimine”.

Usually IC50 stands for the concentration that gives 50% inhibition. Read a high IC50 as a need for much substance.
